This note sets out measurements from patent publication US20260109684A1, “QUINOLINE COMPOUNDS AS MODULATORS OF RAGE ACTIVITY AND USES THEREOF” (NEW YORK UNIVERSITY, priority 2022, published 2026).

One assay addresses T1, ctRAGE (Homo sapiens, UniProt Q15109).
T1 construct: The cytoplasmic domain of RAGE, C terminal RAGE or ctRAGE (RAGE tail)
T1 sequence (Q15109 364-404 limits assumed): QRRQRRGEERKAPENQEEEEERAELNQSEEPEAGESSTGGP
Kind of assay: Fluorescence binding titration assay (native tryptophan fluorescence). The conditions noted are these: 20 nM ctRAGE, 10 mM phosphate buffer pH 7.0, 5% DMSO. As to the method:
Native tryptophan fluorescence experiments were conducted using a Horiba Jobin Yvon Fluorolog spectrofluorometer. 1 mM of a compound was dissolved in 10 mM phosphate buffer [pH 7.0] and 50% DMSO. 20 nM ctRAGE solution was individually titrated from 0.1 nM-100 μM with the compounds in 100 μL of 10 mM phosphate buffer [pH 7.0] and 5% DMSO. The excitation and emission wavelengths were 280 nm and 352 nm, respectively. Dissociation constants, Kd, were estimated from the changes in peak fluorescence intensities as a function of the free compound concentration by using Prism 6 software (GraphPad). Data were fit to the equation, (F−F0)/Fmax=[compound]/(Kd+[compound]) where F is the fluorescence intensity at a given compound concentration, F0 is the fluorescence intensity of the blank, and Fmax is the maximum fluorescence intensity.

The subject of assay [1] is Murine primary aortic smooth muscle cells (SMC). Kind of assay: Murine primary aortic smooth muscle cell (SMC) migration, wounding assay. It counts as cell-based, mice. The following applies: Mus musculus; inhibition of migration; compounds incubated 1.5 h, then CML-AGE (10 μg/ml) or PDGF-BB (10 ng/ml) for 4 h. How it is done: Murine SMCs were cultured from the aortas of 10-week old male mice as described in M. B. Manigrasso, J. Pan, V. Rai, J. Zhang, S. Reverdatto, N. Quadri, R. J. DeVita, R. Ramasamy, A. Shekhtman, A. M. Schmidt, Small Molecule Inhibition of Ligand-Stimulated RAGE-DIAPH1 Signal Transduction. Scientific reports 6, 22450 (2016). Wild-type murine aortic SMCs were isolated and used between passages 8 to 12. Migration in response to the RAGE ligand CML-AGE (CML, 10 μg/ml) or a general effector, not a RAGE ligand, PDGF-BB, 10 ng/ml (R&D systems) was assessed with a wounding assay as also described in M. B. Manigrasso, J. Pan, V. Rai, J. Zhang, S. Reverdatto, N. Quadri, R. J. DeVita, R. Ramasamy, A. Shekhtman, A. M. Schmidt, Small Molecule Inhibition of Ligand-Stimulated RAGE-DIAPH1 Signal Transduction. Scientific reports 6, 22450 (2016). Briefly, cells were grown to confluence in 24-well plates and starved overnight. The following morning, serum free media (SFM) was removed and compounds were added per dose response. Immediately following the addition of compounds, the monolayer was wounded using a p10 pipette tip. The compounds were allowed to incubate for 1.5 h. Following this incubation, all compounds were removed and fresh media containing RAGE ligand, CML-AGE (10 μg/ml), or general effector, PDGF-BB (10 ng/ml), was added for 4 h. Cells were maintained at 37° C. and 5% CO2. Images were taken at 4 h. Each image was measured, and an area ingrowth of effective migrating cells was calculated. Results are shown in FIGS. 12-20 and Table 2 below.

The next assay has as its system ob ob mice. The assay is described as follows: Wound healing of full thickness excisional wounds in ob ob mice. The conditions noted are these: male and female ob ob mice; 5 mg/kg twice daily topical, day 3 through day 10; days 14 and 21 post-surgery. It counts as in vivo. How it is done: RAGE 406R was tested in male and female ob ob mice (model of obesity and type 2 diabetes) for potential benefits in wound healing. Full thickness excisional wounds were created on the backs of 8 week old ob ob mice, as described in Manigrasso et al., “Small-molecule antagonism of the interaction of the RAGE cytoplasmic domain with DIAPH1 reduces diabetic complications in mice,” Sci Transl Med. 13 (621):eabf7084 (2021). Beginning on day 3 after the surgery, mice received RAGE 406R (5 mg/kg) twice daily by topical administration under the Tegaderm through day 10 post-operatively. The wounds were photographed on days 0, 7, 14, and 21 and the % wound closure (compared to baseline) was calculated for each mouse. The Mean+/−Standard Error of the Mean is shown in FIGS. 23A-B along with representative images (FIGS. 23C-D).

In turn, `N#Cc1ccc2c(CN3CCOCC3)cc(-c3ccc(C4CCC(=O)N4)cc3)nc2c1` (racemic) [RAGE 406] returned a dissociation constant (Kd) on ctRAGE of 3 nM. Besides, in assay [1], the IC50 is 28 nM. The matching figures for `N#Cc1ccc2c(CN3CCOCC3)cc(-c3ccc(C(N)=O)cc3)nc2c1` [RAGE 283]: 1 nM and 2.6 nM.

Regarding `N#Cc1ccc2c(CN3CCOCC3)cc(-c3ccc(CN)cc3)nc2c1` [RAGE 286, 2-(4-(aminomethyl)phenyl)-4-(morpholinomethyl)quinoline-7-carbonitrile], the Kd on ctRAGE turned out to be 20 nM. In assay [1], this compound returned an IC50 of 270 nM. Consider `CC(=O)NCc1ccc(-c2cc(C(=O)N3CCOCC3)c3ccc(C#N)cc3n2)cc1` [RAGE 289, N-(4-(7-cyano-4-(morpholine-4-carbonyl)quinolin-2-yl)benzyl) acetamide], for which the affinity on ctRAGE, expressed as Kd, was 3 nM. The IC50 in assay [1] was 18 nM.

The compound `N#Cc1ccc2c(CN3CCOCC3)cc(-c3ccc(C(=N)N)cc3)nc2c1` [RAGE 290] returned a dissociation constant (Kd) on ctRAGE of 1 nM. Moreover, in assay [1], half-maximal inhibition (IC50) required 6 nM.

As for `N#Cc1ccc2c(CN3CCOCC3)cc(-c3ccc(CC(N)=O)cc3)nc2c1` [RAGE 291], the Kd at ctRAGE worked out at 12 nM. On to `CN(C)Cc1ccc(-c2cc(CN3CCOCC3)c3ccc(C#N)cc3n2)cc1` [RAGE 299], for which the Kd at ctRAGE came out at 8 nM. For the same compound, in assay [1], half-maximal inhibition (IC50) was put at 93 nM. In turn, `N#Cc1ccc2c(CN3CCOCC3)cc(-c3ccc(CN4CCCC4)cc3)nc2c1` [RAGE 401] had an IC50 in assay [1] of 905 nM. Take `N#Cc1ccc2c(CN3CCOCC3)cc(-c3ccc(CCN)cc3)nc2c1` [RAGE 402, 2-(4-(2-aminoethyl)phenyl)-4-(morpholinomethyl)quinoline-7-carbonitrile]: binding on ctRAGE was characterised by a dissociation constant (Kd) of 3 nM. In assay [1], this compound returned an IC50 of 136 nM. At ctRAGE, `N#Cc1ccc2c(CN3CCOCC3)cc(-c3ccc([C@H]4CCC(=O)N4)cc3)nc2c1` [RAGE 406R] yielded a Kd of 0.6 nM. In addition, the “% wound closure compared to vehicle-treated animals” value in the assay on ob ob mice is listed as “significantly higher wound closure”. The compound also came in with an IC50 in assay [1] of 1 nM. As for `N#Cc1ccc2c(CN3CCOCC3)cc(-c3ccc([C@@H]4CCC(=O)N4)cc3)nc2c1` [RAGE 406S], the Kd at ctRAGE is 2 nM. Besides, in assay [1], the IC50 turned out to be 1160 nM. `N#Cc1ccc2c(C(=O)N3CCOCC3)cc(-c3ccc(C4CCCN4)cc3)nc2c1` (centres unmarked) [RAGE 407] displayed an equilibrium dissociation constant (Kd) on ctRAGE of 2 nM. Half-maximal inhibition in assay [1] (IC50) required 153 nM.

Broadly, the Kd is the equilibrium constant for the complex coming apart. In general, IC50 refers to the concentration that gives 50% inhibition. A lower IC50 goes with greater potency.
